Reference: US8426429B2, “2-amino-quinazoline derivatives useful as inhibitors of β-secretase (BACE)” (Jansssen Pharmaceutica N.V., priority 2004, dated 2013)

Target: T1, β-secretase (BACE) (Homo sapiens, UniProt P56817)
T1 construct: purchased Panvera
Experiment: BACE FS1 % Inhibition Assay
Type: biochemical
Procedure: The following reagents were used in this assay: sodium acetate, PEG8000 (Sigma), DMSO, HEPES, FS1 substrate [[…]] […] The FS1-substrate stock solution was prepared in DMSO as a 10 mg/mL solution. The FS1-substrate working solution was prepared by diluting the 10 mg/mL stock solution with substrate assay buffer to a final concentration of 300 μg/mL. The β-secretase (BACE) working solution was prepared by diluting a 0.83 mg/mL BACE stock solution with enzyme assay buffer to a final concentration of 4 μg/mL. Test compounds were dissolved in DMSO to 10 mM. […] The screening procedure for this assay was as follows: 15 μL of BACE working solution was pipetted into each well of a 96-well plate. To each well was then pipetted 2 μL of test compound at the selected concentration. Test compound and BACE were then mixed with a pipettor and incubated for 20 min at room temperature. To each well was then added 10 μL of the FS1 substrate working solution. The plates were then incubated for 1 hour at room temperature. […] The procedure for the blank was as follows. 15 μL of assay buffer was pipetted into each well to be used as a blank control. To each well was then added 2 μL of vehicle and 10 μL of FS1-substrate working solution. The plates were then incubated for 1 hour at room temperature. […] The procedure for the positive control was as follows: 15 μL of BACE working solution was pipetted into each well to be used as a positive control. To each well was then pipetted 2 μL of vehicle. Vehicle and BACE were then mixed with a pipettor and incubated for 20 min at room temperature. To each well was then added 10 μL of the FS1 substrate working solution. The plates were then incubated for 1 hour at room temperature. […] For test compounds, % inhibition was determined at each concentration as follows: [formula]

T1 sequence (P56817 46-501): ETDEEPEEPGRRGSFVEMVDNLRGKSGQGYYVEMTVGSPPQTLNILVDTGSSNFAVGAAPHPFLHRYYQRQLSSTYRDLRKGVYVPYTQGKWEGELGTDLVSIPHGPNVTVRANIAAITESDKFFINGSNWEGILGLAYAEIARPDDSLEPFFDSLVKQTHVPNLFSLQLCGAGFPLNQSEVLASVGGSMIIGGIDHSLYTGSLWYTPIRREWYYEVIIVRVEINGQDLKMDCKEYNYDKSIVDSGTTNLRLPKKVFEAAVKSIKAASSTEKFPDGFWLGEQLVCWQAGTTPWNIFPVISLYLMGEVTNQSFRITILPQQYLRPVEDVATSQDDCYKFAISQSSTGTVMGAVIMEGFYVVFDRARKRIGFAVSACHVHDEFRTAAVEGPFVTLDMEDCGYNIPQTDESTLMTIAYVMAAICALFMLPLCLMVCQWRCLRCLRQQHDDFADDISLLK

Row | Structure (SMILES) | % Inhibition (FS) (0.3 μM test compound) [%] | % Inhibition (FS) (1 μM test compound) [%] | % Inhibition (FS) (3 μM test compound) [%] | other results
1 | CN(C(=O)c1cccc(CN2Cc3cc(C=Cc4ccccc4)ccc3N=C2N)c1)C1CCCCC1 [Compound 266] | <30 | 34 | <30 | 
2 | CCCCCCCCC(CCC(=O)N(C)C1CCCCC1)N1Cc2cc(Oc3ccccc3)ccc2N=C1N (stereo not drawn) [Compound 210] | <30 | <30 | <30 | 
3 | CCCCC(CC)CN(CC(CC)CCCC)C(=O)c1cccc(CN2Cc3cc(Oc4ccccc4)ccc3N=C2N)c1 (stereo not drawn) [Compound 198] | <30 | <30 | <30 | 
4 | NC1=Nc2ccc(Oc3ccccc3)cc2CN1C(c1ccccc1)c1cccc(C(=O)N(C2CCCCC2)C2CCCCC2)c1 (stereo not drawn) [Compound 132] |  |  | 54 | % Inhibition (FS) (10 μM test compound): 118%
5 | NC1=Nc2ccc(Oc3ccccc3)cc2CN1[C@@H](CCC(=O)N[C@@H](COCc1ccccc1)C(=O)O)C1CCOCC1 [Compound 782] |  |  |  | % Inhibition (FS) (0.3 μM compound, FS1 substrate): 104%; % Inhibition (FS) (1 μM compound, FS1 substrate): 107%; % Inhibition (FS) (3 μM compound, FS1 substrate): 113%
6 | CCCCC(CC)C(=O)NCCN1Cc2cc(-c3ccc4ccccc4c3)ccc2N=C1N (stereo not drawn) [Compound 669] |  |  |  | % Inhibition (FS) (0.3 μM compound, FS1 substrate): <30%; % Inhibition (FS) (1 μM compound, FS1 substrate): <30%; % Inhibition (FS) (3 μM compound, FS1 substrate): 32%
7 | CC(C)(C)OC(=O)Nc1cccc(CN2Cc3cc(Oc4ccccc4)ccc3N=C2N)c1 [Compound 224] | <30 | <30 | <30 | 
8 | CN(C(=O)c1cccc(CN2Cc3cc(-c4cccc(-c5ccccc5)c4)ccc3N=C2N)c1)C1CCCCC1 [Compound 171] | <30 | 31 | 42 | 
9 | CCCCCC(CCC(=O)NC1CCCCCC1)N1Cc2cc(Oc3ccccc3)ccc2N=C1N (stereo not drawn) [Compound 150] | <30 | <30 | 90 | 
10 | NC1=Nc2ccc(C3=CCCC3)cc2CN1CCNC(=O)C1CCC(C(F)(F)F)CC1 (stereo not drawn) [Compound 707] |  |  |  | % Inhibition (FS) (0.3 μM compound, FS1 substrate): <30%; % Inhibition (FS) (1 μM compound, FS1 substrate): <30%; % Inhibition (FS) (3 μM compound, FS1 substrate): <30%
11 | CN(C(=O)c1cccc(CN2Cc3cc(-c4ccc(C5CCCCC5)cc4)ccc3N=C2N)c1)C1CCCCC1 [Compound 267] | <30 | 39 | 38 | 
12 | CCCCc1ccc(C(=O)NCCN2Cc3cc(Oc4ccccc4)ccc3N=C2N)cc1 [Compound 157] |  |  | <30 | % Inhibition (FS) (10 μM test compound): 50%
13 | CN(C(=O)c1ccc2c(c1)C(N1Cc3cc(Oc4ccccc4)ccc3N=C1N)c1ccccc1-2)C1CCCCC1 (stereo not drawn) [Compound 118] |  |  |  | % Inhibition (FS) (3 μM test compound, 3 µM): 48%; % Inhibition (FS) (10 μM test compound, 10 µM): 91%
14 | COc1ccccc1-c1ccc2c(c1)CN(C(CCC(=O)N(C)C1CCCCC1)C1CCCCC1)C(N)=N2 (stereo not drawn) [Compound 227] | 86 | 109 | 116 | 
15 | NC1=Nc2ccc(Oc3ccccc3)cc2CN1Cc1cccc(C(=O)N2CCCC3CCCCC32)c1 (stereo not drawn) [Compound 212] | <30 | <30 | 32 | 
16 | NC1=Nc2ccc(-c3ccccc3)cc2CN1CCNC(=O)CCC(F)(F)F [Compound 684] |  |  |  | % Inhibition (FS) (0.3 μM compound, FS1 substrate): 33%; % Inhibition (FS) (1 μM compound, FS1 substrate): 38%; % Inhibition (FS) (3 μM compound, FS1 substrate): 78%
17 | CCCC(=O)NCCN1Cc2cc(-c3cnc4ccccc4c3)ccc2N=C1N [Compound 673] |  |  |  | % Inhibition (FS) (0.3 μM compound, FS1 substrate): 34%; % Inhibition (FS) (1 μM compound, FS1 substrate): <30%; % Inhibition (FS) (3 μM compound, FS1 substrate): <30%
18 | CN(C(=O)c1cccc(CN2Cc3cc(-c4cccc(C(=O)O)c4)ccc3N=C2N)c1)C1CCCCC1 [Compound 163] | <30 | 33 | <30 | 
19 | NC1=Nc2ccc(-c3cnc4ccccc4c3)cc2CN1CCNC(=O)C1CCC1 [Compound 670] |  |  |  | % Inhibition (FS) (0.3 μM compound, FS1 substrate): <30%; % Inhibition (FS) (1 μM compound, FS1 substrate): <30%; % Inhibition (FS) (3 μM compound, FS1 substrate): 44%
20 | CCCCCC1CC2(C(=O)NCCN3Cc4cc(Oc5ccccc5)ccc4N=C3N)CCC1CC2 (stereo not drawn) [Compound 194] | <30 | 42 | 38 | 
21 | CC(=O)N1CCC(C(=O)NCCN2Cc3cc(-c4ccccc4C)ccc3N=C2N)CC1 [Compound 695] |  |  |  | % Inhibition (FS) (0.3 μM compound, FS1 substrate): <30%; % Inhibition (FS) (1 μM compound, FS1 substrate): <30%; % Inhibition (FS) (3 μM compound, FS1 substrate): 54%
22 | CC(C)(C)C(=O)NCCN1Cc2cc(-c3ccc4ccccc4c3)ccc2N=C1N [Compound 667] |  |  |  | % Inhibition (FS) (0.3 μM compound, FS1 substrate): 33%; % Inhibition (FS) (1 μM compound, FS1 substrate): <30%; % Inhibition (FS) (3 μM compound, FS1 substrate): <30%
23 | NC1=Nc2ccc(Oc3ccccc3)cc2CN1C(CNC(=O)C12CC3CC(CC(C3)C1)C2)C1CCCCC1 (stereo not drawn) [Compound 312] | 74 | 103 | 115 | 

Continued, in another order:

Row | % Inhibition (FS) (0.3 μM test compound) [%] | % Inhibition (FS) (1 μM test compound) [%] | % Inhibition (FS) (3 μM test compound) [%] | Structure (SMILES) | other results
24 | <30 |  |  | NC1=Nc2ccc(-c3ccc(F)cc3)cc2CN1CCNC(=O)C1CCCCC1 [Compound 623] | % Inhibition (FS) (1 μM test compound, 1 µM): <30%; % Inhibition (FS) (3 μM test compound, 3 µM): 82%
25 | <30 | <30 | 30 | CC(C)[C@@H](CCC(=O)N(C)C1CCCCC1)N1Cc2cc(Oc3ccccc3)ccc2N=C1N [Compound 444] | 
26 | 31 | 63 | 91 | CCCC(=O)NCCN1Cc2cc(-c3ccccc3Cl)ccc2N=C1N [Compound 652] | 
27 | <30 | 31 | 96 | CC1CCCCN1C(=O)CCCC(CCC(=O)N1CCCCC1C)N1Cc2cc(Oc3ccccc3)ccc2N=C1N (stereo not drawn) [Compound 504] | 
28 | <30 | <30 | <30 | CC(=O)Nc1ccccc1-c1ccc2c(c1)CN(CCNC(=O)C1CCCCC1)C(N)=N2 [Compound 541] | 
29 | <30 | <30 | <30 | Cc1cccc(C)c1Oc1ccc2c(c1)CN(Cc1cccc(C(=O)N(C)C3CCCCC3)c1)C(N)=N2 [Compound 475] | 
30 | −33 | <30 | <30 | CN(C(=O)c1cccc(CN2Cc3cc(-c4ccccc4-c4ccccc4)ccc3N=C2N)c1)C1CCCCC1 [Compound 321] | 
31 | <30 | <30 | 68 | CC1CCN(C(=O)CCCC(CCC(=O)N2CCC(C)CC2)N2Cc3cc(Oc4ccccc4)ccc3N=C2N)CC1 (stereo not drawn) [Compound 532] | 
32 | 39 | 74 | 104 | CCCCC(CC)C(=O)NCCN1Cc2cc(-c3ccccc3F)ccc2N=C1N (stereo not drawn) [Compound 648] | 
33 | <30 | <30 | 55 | COc1ccc(Sc2ccc3c(c2)CN(Cc2cccc(C(=O)N(C)C4CCCCC4)c2)C(N)=N3)cc1OC [Compound 411] | 
34 | <30 | <30 | <30 | CN(C(=O)c1cccc(CN2Cc3cc(OCC4CCCC4)ccc3N=C2N)c1)C1CCCCC1 [Compound 521] | 
35 | <30 | <30 | <30 | CN(C(=O)c1cccc(CN2Cc3cc(Oc4cccc(-c5ccc6ccccc6n5)c4)ccc3N=C2N)c1)C1CCCCC1 [Compound 473] | 
36 | <30 | <30 | 41 | CC(C)(C)OC(=O)N1CCC(CN2Cc3cc(Oc4ccccc4)ccc3N=C2N)CC1 [Compound 509] | 
